No end group written: not given here.
Legend:
[1] = system: β-galactosidase expressing CMV; experiment: CMV entry assay in RPE cells; type: cell-based, cytomegalovirus; conditions: 0.5 mM, 60 min pre-treatment, 8 h, ONPG and X-gal
Protocol: Natural target RPE cells were incubated with G1 and G2 peptides for 60 min at room temperature before the cells were infected with β-galactosidase expressing CMV (ATCC) for 8 h. β-galactosidase assays were performed using either a soluble substrate o-nitrophenyl-β-D-galactopyranoside (ONPG at 3.0 mg/ml; ImmunoPure, Pierce) or X-gal (Sigma).
In order to detect each peptide's effect on viral entry, Lac Z-expressing reporter CMV and GFP-expressing HHV-8 viruses (Viera et al., J. Virol. 72:5182-5188 (2000)) and their natural target cells were employed for entry measurements. […] A monolayer of cultured RPE cells grown in a 96 well plate were pre-treated with G1, G2, or control peptide (Cp) at 0.5 mM concentration (FIG. 5A). A mock-treated population of RPE cells served as positive control (abbreviated as C). After 60 min of incubation at room temperature, the cells were infected with β-galactosidase expressing CMV reporter virus. After 8 h, viral entry was measured as described for FIG. 1.
The effect of CMV entry blocking activity of G1, G2 or Cp peptide for individual RPE cells was determined by X-gal staining, which yields an insoluble blue product upon hydrolysis by β-galactosidase (FIG. 5B). Individual cells were examined using a Zeiss Axiovert 100 microscope at 20× magnification. Infected cells turn blue. […]

HSV-1(K26GFP) = HSV-1(K26GFP) replication in human CF (GFP fluorescence over time); type: cell-based, herpes simplex virus type-1; conditions: 0-36 h post-infection (FIG. 6D)
Protocol: GFP-expressing HSV-1(K26GFP) intensity as a surrogate for virus binding was quantified in presence G2 or control peptide (abbreviated as C) by flow cytometry (FIG. 6C). The cell/virus incubation was performed as described above. G2 peptides block HSV-1 replication into cultured human corneal fibroblasts (CF) (FIG. 6D). Cultured CF were pre-incubated with G2 or mock-treated (Cp) before infection with HSV-1(K26GFP) virus for 6 h. Viral replications in CF were quantified 0-36 h post-infection by measuring GFP fluorescent intensity using a fluorescence reader (Tecan). The data shown are the means of triplicate measures and are representative of three independent experiments. Asterisks indicate significant difference from other treatments (P<0.01, t test), error bars represent standard deviation (SD).
To further confirm that blocking of viral attachment results in a reduction of viral replication, GFP fluorescence was measured as a function of time (K26GFP) (Desai and Person J. Virol. 72:7563-7568 (1998)) in both G2- and mock-treated cells.

[2] = system: HSV-1 glycoproteins (gB, gD, gH-gL) induced membrane fusion; experiment: HSV-1 glycoprotein induced cell-to-cell fusion assay, 3-OST-3-expressing CHO-K1 target cells; type: cell-based, herpes simplex virus type-1
Description: CHO-K1 “effector” cells (grown in F-12 Ham, Invitrogen) were co-transfected with plasmids expressing four HSV-1(KOS) glycoproteins: pPEP98 (gB), pPEP99 (gD), pPEP100 (gH), and pPEP101 (gL), along with the plasmid pT7EMCLuc that expresses firefly luciferase gene under transcriptional control of the T7 promoter. Pertel et al., Virology 279:313-324 (2001). Wild-type CHO-K1 cells, which express cell-surface HS but lack functional gD receptors, were transiently transfected with HSV-1 entry receptors. Wild-type CHO-K1 cultured cells expressing HSV-1 entry receptors or naturally susceptible cells (human CF) considered as “target cells” were co-transfected with pCAGT7 that expresses T7 RNA polymerase using chicken actin promoter and CMV enhancer. Tiwari et al., FEBS Letters 581:4468-4472 (2007). Untreated effector cells expressing pT7EMCLuc and HSV-1 essential glycoproteins, and target cells expressing gD receptors transfected with T7 RNA polymerase, were used as positive controls. […]
Control effector cells (T7 polymerase and gD, gH-gL only) (−) were also pre-incubated with G2 for the same duration. […] Membrane fusion as a surrogate for viral spread was detected by monitoring luciferase activity (FIGS. 7A and 7C). Relative luciferase units (RLUs) were determined using a Sirius luminometer (Berthold detection systems). […]

Sequence | blocking of CMV entry [1] | viral replication (GFP intensity over time) (HSV-1(K26GFP)) | blocking of membrane fusion (luciferase activity) ([2]; 3-OST-3-expressing CHO-K1 cells (FIG. 7C)) | syncytia (polykaryocyte) formation, Giemsa staining ([2]; 3-OST-3-expressing CHO-K1 cells (FIG. 7D))
LRSRTKIIRIRH [G1, LRSRTKIIRIRH] | no effect on viral entry | – | – | –
MPRRRRIRRRQK [G2, MPRRRRIRRRQK] | effective in blocking CMV entry | substantial reduction of viral replication | very effective in blocking membrane fusion | loss of syncytia formation
